# Key:
# [1] = toxicity (LD50); format: in vivo; conditions: compared with prior art
# [2] = system: SA-45; test: action in rats with SA-45 at late stages of tumor development (17 days after implantation); format: in vivo, rat; conditions: group II; 10 animals; i.v. 1500 mg/kg, 17 days after tumor implantation
# Description: (§1) Non-linear male rats with the starting weight 120-150 g were used in the experiments described hereinunder in Examples 1-4. All the animals were administered intravenously a single dose of the pharmaceutical composition in the form of the concentrated solution (10-30%) of the active principle in distilled water at a rate of 1500 mg/kg. The animals were decapitated on the 20th say from the day of the administration. All the animals received the usual laboratory ration.
# The action of the pharmaceutical composition consisting of 30% solution of the active principle above formula where R is NH2, in distilled water was tested in rats with SA-45 at late stages of tumor development. The composition was administered 17 days after tumor implantation. The results of the experiment are presented in Table 4 where I--control animals, II--rats which were administered the pharmaceutical composition.
# [3] = system: implanted mammary gland cancer (RMGC-1); test: action on tumor growth in rats with implanted mammary gland cancer RMGC-1, early stage (24 hours after implantation); format: in vivo, rat; conditions: 10 animals
# Description: as §1
# The action of the pharmaceutical composition consisting of 30% solution of the active principle of the above formula where R is NHNH2, in distilled water on tumor growth was tested in rats with implanted mammary gland cancer (RMGC-1). The results of the experiments are presented in Table 1, where I--control animals, II--rats which were administered the pharmaceutical composition, III--rats which were administered the same composition against the background of 90 minutes' hyperglycemia. The animals of groups II and III were administered the composition 24 hours after tumor implantation.
# [4] = system: implanted SA-45; test: action in rats with implanted SA-45 at early stages of tumor development (48 hours after implantation); format: in vivo, rat; conditions: group II; 10 animals; i.v. 1500 mg/kg, 48 hours after tumor implantation
# Description: as §1
# The action of the same pharmaceutical composition as in Example 1 was tested in rats with implanted SA-45 at early stages of tumor development. The pharmaceutical composition was administered 48 hours after tumor implantation. The results of the experiment are presented in Table 3, where I--control group, II--rats which were administered pharmaceutical composition.
# [5] = system: implanted RMCC-1; test: action in rats with implanted RMCC-1 at late stage of tumor development (15 days after implantation); format: in vivo, rat; conditions: group II, i.v. 1500 mg/kg
# Description: as §1
# The action of the same pharmaceutical composition as in Example 1 was tested in rats with implanted RMCC-1 at late stage of tumor development. The pharmaceutical composition was administered 15 days after tumor implanatation, the average weight of the tumor being 35 g. The groups of the animals are designated as in Example 1. None of the controls survived till the day of decapitation (the 20th day after the administration of the pharmaceutical composition to group II).
# [6] = prior art compound; cited from earlier work
# [7] = system: carcinosarcoma DS; conditions: known drugs, prior art; cited from earlier work
# [8] = group II, single i.v. dose 1500 mg/kg, 24 hours after tumor implantation, 20th day
# [9] = group III, against the background of 90 minutes' hyperglycemia, i.v. 1500 mg/kg, 24 hours after implantation
# [10] = 6 animals, 15 days after tumor implantation, average tumor weight 35 g
compound,measurement,setting,value
NC(=O)C1CN1 (centres unmarked) [2-carbamoylaziridine],therapeutic index,[1],considerably higher
same,Complete disappearance of the tumor (animals),[2],6
same,No effect (animals),[2],2
same,Partial disappearance of the tumor (animals),[2],2
NNC(=O)C1CN1 (centres unmarked) [active principle where R is NHNH2],Complete disappearance of the tumor (animals),[3]; [8],8
same,No effect (animals),[3]; [8],2
same,Complete disappearance of the tumor (animals),[3]; [9],7
same,No effect (animals),[3]; [9],1
same,Partial disappearance of the tumor (animals),[3]; [9],2
same,Complete disappearance of the tumor (animals),[4],3
same,No effect (animals),[4],4
same,Partial disappearance of the tumor (animals),[4],3
same,Life time increased by,"[5]; animals with partial disappearance of the tumor, 15 days after implantation",50%
same,Complete disappearance of the tumor (animals),[5]; [10],3
same,Partial disappearance of the tumor (animals),[5]; [10],3
N#CC1CN1C(N)=O (centres unmarked) [1-carbamoyl-2-cyano-aziridine],LD50,[6],1 250 mg/kg
same,cure of rats with carcinosarcoma DS,[7],47.4%

# Reference: patent publication US4686215A, “Pharmaceutical composition and method for treating tumors susceptible to 2-carbamoylaziridine” (priority 1976, dated 1987)
